# Assay results: patent publication US20250066485A1, “USE OF INTEGRIN a5b1 INHIBITORS IN THE TREATMENT OF PULMONARY HYPERTENSION AND HEART FAILURE” (Morphic Therapeutic, Inc., priority 2022, published 2025)
# Read-outs that look alike come from different tables or passages of the source.
# What was measured:
# PAB rats = experiment: Pulmonary Arterial Banding (PAB) rat model; format: in vivo
# Method: Animals were divided into three study groups as follows: • (1) Control group/Sham (n=5) • (2) PAB+PBS vehicle orally twice a day (BID) (n=10) • (3) PAB+SMi at 100 mpk orally BID (n=10)
# Pulmonary arterial constriction was surgically performed in rats at day 0. Beginning in week 4 following surgery, animals were exposed to vehicle or SMi treatment. Weekly echocardiography was performed from surgery to week 10. After a total of 10 weeks, animals were subjected to RV catheterization.
# PAB rats were subjected to right heart catheterization (RHC) (using standard techniques and while the subject is in steady state). Treatment with integrin α5β1 inhibitor, SMi improved cardiac output, stroke volume, RVSP and RVEPD.
# Human PAH-RVFbs = experiment: PAH-RVFbs proliferation and activation; format: cell-based; details: 0.25 μM, 1 μM, and 4 μM
# Method: PAH patient samples were assessed for expression of fibronectin binding integrins. […] Human PAH-RVFbs were treated with integrin α5β1 inhibitor SMi at 0.25 μM, 1 μM, and 4 μM. […] (FIGS. 22A and 22B).
# MCT rats = experiment: Monocrotaline (MCT) rat pulmonary hypertension model; format: in vivo
# Method: MCT Animals were divided into study groups as follows: • (1) Non-MCT vehicle orally twice a day (BID) (n=6) • (2) MCT+PBS vehicle orally twice a day (BID) (n=8) • (3) MCT+SMi at 100 mpk orally BID (n=8)
# MCT (60 mg/kg) was administered by subcutaneous injection. Animals were exposed to vehicle or SMi treatment for 2 weeks. Blood, RV and lung analysis was performed. Cells were assessed for expression of EVG, αSMA, PCNA, and C3C. […] FIG. 12A-12D show exemplary results of treatment with SMi in MCT rats. Occlusion score (FIG. 12A), vascular remodeling (FIG. 12B), apoptosis (FIG. 12C) and proliferation (FIG. 12D) were measured.
# MCT animals were treated with SMi alone or in combination with SoC therapy (Macitentan (1 mg/kg)+Tadalafil (10 mg/kg) daily). MCT Animals were divided into study groups as follows: • (1) Non-MCT vehicle orally twice a day (BID) (n=6) • (2) MCT+PBS vehicle orally twice a day (BID) (n=8) • (3) MCT+SMi at 100 mpk orally BID (n=8) • (4) MCT+SMi at 100 mpk orally BID+SoC (Macitentan (1 mg/kg)+Tadalafil (10 mg/kg) daily (n=8).
# MCT (60 mg/kg) was administered by subcutaneous injection at day 0. Beginning in week 3, animals were exposed to vehicle or SMi treatment for 2 weeks. (FIG. 23A) Blood, RV and lung analysis was performed.
# To determine the selectivity of SMi for α5β1, MCT animals were prepared as described above and treated with SMi or a dual inhibitor of α5β1/αvβ1 (MRT).
# SuHx rats = experiment: Sugen/Hypoxia (SuHx) induced PAH rat model; format: in vivo
# Method: Broad-spectrum pharmacological inhibition of α5β1 improves hemodynamics and vascular remodeling in Su/Hx rats with established PAH alone or in combination with standard of care.
# Animals were injected with 20 mg/kg Sugen 5416 at day 0 and subjected to hypoxia conditions (10% oxygen) for 3 weeks. Echocardiography was performed at the start of treatment with integrin α5β1 inhibitors at week 3 and at week 5. Right heart catheterization was performed at the end of week 5. Tissues were harvested for analysis.
# PAH-PASMCs = experiment: Proliferation (Ki67) and apoptosis (annexin V) of PAH-PASMCs on Fb-coated plates; format: cell-based, human; details: 0.25 μM, 1 μM, and 4 μM on Fb-coated plates
# Method: Integrin α5β1 inhibitors (MRT, SMi, P1D6, or M200) were assessed for proliferation and apoptosis on Fb-coated plates. FIG. 5A-5C show exemplary proliferation (Ki67) and apoptosis (annexin V) of PAH-PASMCs treated with integrin α5β1 inhibitors (MRT, SMi, P1D6, or M200).
# PAH-PASMCs were treated with integrin α5β1 inhibitor SMi at 0.25 μM, 1 μM, and 4 μM on Fb-coated plates. Cells were evaluated by Western blot analysis to determine expression levels of ITGα5, ITGαV, ITGβ1, p-FAK, MCM2, PLK1, p-ERK, ERK, PCNA and Survivin in hPASMCs (FIG. 6A-6B).
# [1] = tested on: Primary rat cardiomyocytes; experiment: PE-induced cardiomyocyte hypertrophy; format: cell-based; details: 100 μM PE; 0.25 μM, 1 μM, and 4 μM
# Method: Primary rat cardiomyocytes were treated with 50 μM, 100 μM, or 200 μM, phenylephrine (PE). Expression of ITGα5, ITGαV, ITGβ1, ITGβ3, ITGβ5 were determined by western blot (FIG. 21A). Cells treated with 100 μM PE were simultaneously exposed to integrin α5β1 inhibitor SMi at 0.25 μM, 1 μM, and 4 μM.
# SuHx mice = experiment: Sugen/hypoxia (SuHx) mice model of PAH; format: in vivo, mouse; details: SMi 100 mpk PO BID, 339.1 10 mpk IP 3x week
# Method: SuHx treated mice were prepared as described above and treated with integrin α5β1 antibody inhibitors (e.g., anti-mouse integrin α5β1 clone 339.1) or SMi. anti-mouse integrin α5β1 clone 339.1 is described in Bhaskar, V., Zhang, D., Fox, M. et al. A function blocking anti-mouse integrin α5β1 antibody inhibits angiogenesis and impedes tumor growth in vivo. J Transl Med 5, 61 (2007). doi.org/10.1186/1479-5876-5-61), which is hereby incorporated by reference in its entirety.
# Mice were injected with 20 mg/kg Sugen 5416 (vascular endothelial growth factor receptor inhibitor) at day 0, day 7 and day 14 and subjected to hypoxia conditions (10% oxygen) for 3 weeks. Echocardiography was performed at the start of treatment with integrin α5β1 inhibitors at week 3 (e.g., day 21) and at the end of week 5. Right heart catheterization was performed at the end of week 5.
# Cardiac function was measured including improved cardiac output, and stroke volume. Other features including media cell wall thickness, vascular remodeling, proliferation, and apoptosis were measured.
# Mice were divided into the following treatment and control groups: • Control group (n=5) • Vehicle PO BID (n=10) • SMi 100 mpk PO BID (n=10) • Macitentan 15 mpk PO BID (n=15) • IgG isotype control10 mpk IP (3× week) (n=15) • 339.1 10 mpk IP (3× week) (n=15) • 339.1 10 mpk IP+Macitentan 15 mpk PO BID (n=15)
# MCT animals = MCT animals with a cardiac defect, echocardiography; format: in vivo; details: 100 mg/Kg PO BID, Day 14 to Day 27, PH phenotype not induced
# Method: To test the impact of SMi on cardiac function, MCT animals with a cardiac defect were treated with SMi or sildenafil as follows (1) Non-MCT vehicle PO BID; (2) MCT+vehicle PO BID (3) MCT+SMi 100 mg/Kg PO BID (4) MCT+sildenafil 10 mg/Kg PO BID (5) MCT+sildenafil 30 mg/Kg PO BID (6) MCT+sildenafil 100 mg/Kg PO BID. Pulmonary hypertension phenotype was not induced in this study (MCT causes both vascular and cardiac injury). Treatment with SMi, vehicle or sildenafil was administered, twice a day, from Day 14 to Day 27. Echocardiogram monitoring of the progression of the disease was carried out on Day 0, Day 14 and on surgery day (Day 28) for all the animals. Blood samples were taken on Day 0, Day 14 and Day 28. Pulmonary artery maximum velocity, cardiac output, stroke volume, right ventricle anterior wall thickness and pulmonary artery acceleration time were determined. […] The data were used to calculate the cardiac output and the stroke volume as follows: The cardiac output was calculated using the following formula (JF Lewis et al. 1984): Cardiac output=heart rate×VTI((pulmonary artery diameter^2×3.1416)/4) The stroke volume was calculated using the following formula: Stroke volume=cardiac output/heart rate
# [2] = cited from earlier work
# hPASMCs = experiment: hPASMC proliferation on fibronectin-coated plates; format: cell-based, human; details: fibronectin-coated 96 well plate, up to 5 days
# Method: Antibody integrin α5β1 inhibitors were evaluated to determine whether integrin α5β1 inhibitors (e.g., P1D6 antibody or M200 antibody) could impair proliferation. Cells were seeded at 3000 cells/well in a 96 well plate coated with fibronectin. The next day integrin α5β1 inhibitor treatments were added and proliferation was monitored for up to 5 days.
# [3] = at room temperature; cited from earlier work
# [4] = biological target: integrin α5β1 on hPASMCs (human) (UniProt P08648); experiment: cell-based or functional assay
# [5] = biological target: rat α5β1 (cells expressing rat α5β1) (rat); experiment: cell-based or functional assay
# [6] = biological target: rat α5β1 (cells expressing rat α5β1) (rat, UniProt A0A0G2K1E2 94-1099; P49134 21-798); experiment: cell-based or functional assay
# integrin α5β1 on hPASMCs (human), sequence (P08648 42-1049, chain 1 of 2): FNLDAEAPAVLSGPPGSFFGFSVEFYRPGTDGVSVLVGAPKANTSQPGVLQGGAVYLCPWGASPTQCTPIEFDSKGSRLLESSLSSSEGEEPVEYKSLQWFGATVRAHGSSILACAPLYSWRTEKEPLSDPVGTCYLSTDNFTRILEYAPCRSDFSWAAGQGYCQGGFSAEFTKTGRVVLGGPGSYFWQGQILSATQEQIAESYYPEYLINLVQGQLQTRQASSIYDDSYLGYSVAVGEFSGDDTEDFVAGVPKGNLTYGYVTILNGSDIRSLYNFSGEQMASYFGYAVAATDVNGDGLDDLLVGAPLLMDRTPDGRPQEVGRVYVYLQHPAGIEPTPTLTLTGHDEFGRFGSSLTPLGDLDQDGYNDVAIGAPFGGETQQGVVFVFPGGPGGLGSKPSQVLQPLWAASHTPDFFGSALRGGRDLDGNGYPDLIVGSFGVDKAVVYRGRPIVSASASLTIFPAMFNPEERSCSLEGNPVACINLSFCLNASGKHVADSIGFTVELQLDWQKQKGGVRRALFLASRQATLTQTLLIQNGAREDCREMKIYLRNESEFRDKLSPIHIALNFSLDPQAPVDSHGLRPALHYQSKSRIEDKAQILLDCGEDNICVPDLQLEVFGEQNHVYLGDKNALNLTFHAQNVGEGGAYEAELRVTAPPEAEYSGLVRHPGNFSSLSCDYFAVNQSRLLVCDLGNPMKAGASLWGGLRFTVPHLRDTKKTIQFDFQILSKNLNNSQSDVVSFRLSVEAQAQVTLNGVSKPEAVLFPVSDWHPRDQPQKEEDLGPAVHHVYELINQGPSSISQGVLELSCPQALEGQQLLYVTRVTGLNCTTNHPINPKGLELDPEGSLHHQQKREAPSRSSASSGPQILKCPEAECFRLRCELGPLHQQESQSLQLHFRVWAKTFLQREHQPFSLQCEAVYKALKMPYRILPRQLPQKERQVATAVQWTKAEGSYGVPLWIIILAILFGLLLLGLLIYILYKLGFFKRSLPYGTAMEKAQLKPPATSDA
# integrin α5β1 on hPASMCs (human), sequence (P05556 21-798, chain 2 of 2, further chain): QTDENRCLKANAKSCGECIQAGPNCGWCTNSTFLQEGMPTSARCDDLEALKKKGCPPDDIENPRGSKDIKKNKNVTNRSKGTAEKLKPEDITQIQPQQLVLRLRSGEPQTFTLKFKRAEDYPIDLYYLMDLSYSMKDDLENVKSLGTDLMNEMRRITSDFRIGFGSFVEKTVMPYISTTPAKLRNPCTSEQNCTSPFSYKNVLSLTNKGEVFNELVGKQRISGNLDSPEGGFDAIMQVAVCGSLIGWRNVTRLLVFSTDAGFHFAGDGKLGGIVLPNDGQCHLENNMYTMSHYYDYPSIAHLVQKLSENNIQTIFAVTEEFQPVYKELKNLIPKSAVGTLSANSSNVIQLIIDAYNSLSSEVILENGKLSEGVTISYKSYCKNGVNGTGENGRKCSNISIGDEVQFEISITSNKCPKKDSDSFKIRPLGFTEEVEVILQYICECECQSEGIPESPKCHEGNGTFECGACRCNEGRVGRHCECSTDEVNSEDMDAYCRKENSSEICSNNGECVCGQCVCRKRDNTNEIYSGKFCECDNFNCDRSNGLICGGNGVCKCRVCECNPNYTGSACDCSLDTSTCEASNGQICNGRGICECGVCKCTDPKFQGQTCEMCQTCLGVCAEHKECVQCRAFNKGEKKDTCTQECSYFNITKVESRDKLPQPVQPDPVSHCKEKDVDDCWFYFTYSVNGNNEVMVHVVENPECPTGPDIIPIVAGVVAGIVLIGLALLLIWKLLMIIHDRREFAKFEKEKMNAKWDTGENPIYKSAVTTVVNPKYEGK
molecule,measurement,setting,value
Cc1nn(C)c2c(C(C(=O)O)N3CC(OCCCCc4ccc5c(n4)NCCC5)C3)cccc12 (stereo not drawn) [SMi],hypertrophy and right ventricle (RV) fibrosis,PAB rats; 100 mpk orally BID,improved
same,cardiac function over time compared to vehicle control,PAB rats; echocardiography,directly improved cardiac function
same,RVEPD,PAB rats; right heart catheterization,improved
same,RVSP,PAB rats; right heart catheterization,improved
same,cardiac output,PAB rats; right heart catheterization,improved
same,stroke volume,PAB rats; right heart catheterization,improved
same,PAH-RVFbs proliferation and activation,Human PAH-RVFbs,decreases PAH-RVFbs proliferation and activation in a dose dependent manner
same,"cardiac function vascular remodeling (EVG, media wall thickness, mPAP, cardiac output, RVFAC)",MCT rats,improved cardiac function vascular remodeling
same,vascular remodeling,"MCT rats; 100 mpk orally BID, 2 weeks",improved vascular remodeling
same,hypertrophy and right ventricle (RV) fibrosis,MCT rats; SMi alone or in combination with SoCs,improved
same,vascular remodeling,MCT rats; SMi alone or with Maci (1 mg/kg) + Tada (10 mg/kg),improved vascular remodeling
same,apoptosis,SuHx rats; SMi and/or SoCs,improved
same,fibrosis,SuHx rats; SMi and/or SoCs,reduced
same,hypertrophy,SuHx rats; SMi and/or SoCs,reduced
same,media cell wall thickness,SuHx rats; SMi and/or SoCs,improved
same,proliferation,SuHx rats; SMi and/or SoCs,improved
same,stroke volume,SuHx rats; SMi and/or SoCs,improved
same,vascular remodeling,SuHx rats; SMi and/or SoCs,improved
same,cardiac output,"SuHx rats; SMi and/or SoCs (Macitentan, Tadalafil)",improved
same,apoptosis (annexin V),PAH-PASMCs,increased apoptosis
same,proliferation (Ki67),PAH-PASMCs,impaired proliferation
same,PE-induced adult rat cardiomyocytes hypertrophy,[1],prevents PE-induced adult rat cardiomyocytes hypertrophy
same,cardiac and vascular improvement,SuHx mice,cardiac and vascular improvement
same,cardiac output,MCT animals,considerable increase
"CN1CC(=O)N2[C@H](c3ccc4c(c3)OCO4)c3[nH]c4ccccc4c3C[C@@H]2C1=O [Tadalafil, tadalafil]",half-life,[2]; in patients with PAH,35 h
"M200: integrin α5β1 antibody, heavy chain SEQ ID NO: 1, light chain SEQ ID NO: 2",proliferation of hPASMCs,hPASMCs,reduced proliferation
"CCCCC[C@H](O)/C=C/[C@@H]1[C@H]2C/C(=C/CCCC(=O)O)O[C@H]2C[C@H]1O [Flolan, epoprostenol]",stability,[3],8 h
same,half-life,[2]; in vivo,0.05 to 0.083 h
P1D6 (antibody),reduction of hPASMCs proliferation,[4],70%
same,"IC50 (nM), cell adhesion assay",[5],5.6 nM
same,"IC50 (ug/ml), cell adhesion assay",[5],0.84 µg/mL
"volociximab (M200) (antibody, human IgG4, kappa, V domains shown) VH: QVQLKESGPGLVAPSQSLSITCTISGFSLTDYGVHWVRQPPGKGLEWLVVIWSDGSSTYNSALKSRMTIRKDNSKSQVFLIMNSLQTDDSAMYYCARHGTYYGMTTTGDALDYWGQGTSVTVSS VL: QIVLTQSPAIMSASLGERVTMTCTASSSVSSNYLHWYQQKPGSAPNLWIYSTSNLASGVPARFSGSGSGTSYSLTISSMEAEDAATYYCHQYLRSPPTFGGGTKLEIKR","IC50 (nM), cell adhesion assay",[6],6.8 nM
same,"IC50 (ug/ml), cell adhesion assay",[6],1 µg/mL
